According to PubChem BioAssay (NCI):
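GI50 marks 50% less growth. TGI is the concentration that stops growth completely.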

Legend:
Test in all cases: NCI tumour cell line growth inhibition, 384-well format
CAKI-1 renal = tested on: CAKI-1 renal
OVCAR-8 ovarian = tested on: OVCAR-8 ovarian
DU-145 prostate = tested on: DU-145 prostate
SK-MEL-5 melanoma = tested on: SK-MEL-5 melanoma
LOX IMVI melanoma = tested on: LOX IMVI melanoma
MCF7 breast = tested on: MCF7 breast
HT29 colon = tested on: HT29 colon
HCC-2998 colon = tested on: HCC-2998 colon
NCI-H23 lung = tested on: NCI-H23 lung
HOP-62 NSCLC = tested on: HOP-62 NSCLC
COLO 205 colon = tested on: COLO 205 colon
NCI-H322M lung = tested on: NCI-H322M lung
NCI-H226 lung = tested on: NCI-H226 lung
MOLT-4 leukemia = tested on: MOLT-4 leukemia
RPMI-8226 leukemia = tested on: RPMI-8226 leukemia
NCI/ADR-RES ovarian = tested on: NCI/ADR-RES ovarian
MDA-MB-435 melanoma = tested on: MDA-MB-435 melanoma
SK-MEL-28 melanoma = tested on: SK-MEL-28 melanoma
CCRF-CEM leukemia = tested on: CCRF-CEM leukemia
PC-3 prostate = tested on: PC-3 prostate
HCT-15 colon = tested on: HCT-15 colon
SN12C renal = tested on: SN12C renal
BT-549 breast = tested on: BT-549 breast
SR leukemia = tested on: SR leukemia
A549 NSCLC = tested on: A549 NSCLC
786-0 renal = tested on: 786-0 renal
MDA-MB-468 breast = tested on: MDA-MB-468 breast
NCI-H460 NSCLC = tested on: NCI-H460 NSCLC
OVCAR-5 ovarian = tested on: OVCAR-5 ovarian
EKVX NSCLC = tested on: EKVX NSCLC
SW-620 colon = tested on: SW-620 colon
KM12 colon = tested on: KM12 colon
TK-10 renal = tested on: TK-10 renal
SNB-19 CNS = tested on: SNB-19 CNS
SNB-75 CNS = tested on: SNB-75 CNS
OVCAR-4 ovarian = tested on: OVCAR-4 ovarian
K-562 leukemia = tested on: K-562 leukemia
M14 melanoma = tested on: M14 melanoma
ACHN renal = tested on: ACHN renal
A498 renal = tested on: A498 renal
HL-60(TB) leukemia = tested on: HL-60(TB) leukemia
HOP-92 NSCLC = tested on: HOP-92 NSCLC
IGROV1 ovarian = tested on: IGROV1 ovarian
MALME-3M melanoma = tested on: MALME-3M melanoma
NCI-H522 lung = tested on: NCI-H522 lung
UACC-257 melanoma = tested on: UACC-257 melanoma
SF-295 CNS = tested on: SF-295 CNS
RXF 393 renal = tested on: RXF 393 renal
HS 578T breast = tested on: HS 578T breast
MDA-MB-231 breast = tested on: MDA-MB-231 breast
UO-31 renal = tested on: UO-31 renal
SK-OV-3 ovarian = tested on: SK-OV-3 ovarian
OVCAR-3 ovarian = tested on: OVCAR-3 ovarian
SF-268 CNS = tested on: SF-268 CNS
SF-539 CNS = tested on: SF-539 CNS
UACC-62 melanoma = tested on: UACC-62 melanoma

C[C@@H]1CCc2ncc(F)cc2[C@H]2CCCN2c2ccn3ncc(c3n2)C(=O)N1
GI50 (CAKI-1 renal): 56.1 µM | TGI (CAKI-1 renal): > 100 µM | GI50 (OVCAR-8 ovarian): > 100 µM | TGI (OVCAR-8 ovarian): > 100 µM | GI50 (DU-145 prostate): > 100 µM | TGI (DU-145 prostate): > 100 µM | GI50 (SK-MEL-5 melanoma): > 100 µM | TGI (SK-MEL-5 melanoma): > 100 µM | GI50 (LOX IMVI melanoma): > 100 µM | TGI (LOX IMVI melanoma): > 100 µM | GI50 (MCF7 breast): 18.5 µM | TGI (MCF7 breast): > 100 µM | GI50 (HT29 colon): 75.5 µM | TGI (HT29 colon): > 100 µM | GI50 (HCC-2998 colon): > 100 µM | TGI (HCC-2998 colon): > 100 µM | GI50 (NCI-H23 lung): 93.8 µM | TGI (NCI-H23 lung): > 100 µM | GI50 (HOP-62 NSCLC): 63.4 µM | TGI (HOP-62 NSCLC): > 100 µM | GI50 (COLO 205 colon): 64.9 µM | TGI (COLO 205 colon): > 100 µM | GI50 (NCI-H322M lung): > 100 µM | TGI (NCI-H322M lung): > 100 µM | GI50 (NCI-H226 lung): 5.37 µM | TGI (NCI-H226 lung): > 100 µM | GI50 (MOLT-4 leukemia): 5.07 µM | TGI (MOLT-4 leukemia): 20.4 µM | GI50 (RPMI-8226 leukemia): 2360 nM | TGI (RPMI-8226 leukemia): > 100 µM | GI50 (NCI/ADR-RES ovarian): > 100 µM | TGI (NCI/ADR-RES ovarian): > 100 µM | GI50 (MDA-MB-435 melanoma): 57.2 µM | TGI (MDA-MB-435 melanoma): > 100 µM | GI50 (SK-MEL-28 melanoma): 70.2 µM | TGI (SK-MEL-28 melanoma): > 100 µM | GI50 (CCRF-CEM leukemia): 8.73 µM | TGI (CCRF-CEM leukemia): > 100 µM | GI50 (PC-3 prostate): > 100 µM | TGI (PC-3 prostate): > 100 µM | GI50 (HCT-15 colon): > 100 µM | TGI (HCT-15 colon): > 100 µM | GI50 (SN12C renal): 20.8 µM | TGI (SN12C renal): > 100 µM | GI50 (BT-549 breast): 76.3 µM | TGI (BT-549 breast): > 100 µM | GI50 (SR leukemia): 1630 nM | TGI (SR leukemia): 3.2 µM | GI50 (A549 NSCLC): 61.9 µM | TGI (A549 NSCLC): > 100 µM | GI50 ([…]-0 renal): 23.6 µM | TGI (786-0 renal): > 100 µM | GI50 (MDA-MB-468 breast): 17 µM | TGI (MDA-MB-468 breast): 92 µM | GI50 (NCI-H460 NSCLC): > 100 µM | TGI (NCI-H460 NSCLC): > 100 µM | GI50 (OVCAR-5 ovarian): 32.6 µM | TGI (OVCAR-5 ovarian): > 100 µM | GI50 (EKVX NSCLC): > 100 µM | TGI (EKVX NSCLC): > 100 µM | GI50 (SW-620 colon): > 100 µM | TGI (SW-620 colon): > 100 µM | TGI (KM12 colon): > 100 µM | GI50 (TK-10 renal): > 100 µM | TGI (TK-10 renal): > 100 µM | GI50 (SNB-19 CNS): > 100 µM | TGI (SNB-19 CNS): > 100 µM | GI50 (SNB-75 CNS): 25.4 µM | TGI (SNB-75 CNS): > 100 µM | GI50 (OVCAR-4 ovarian): 10.3 µM | TGI (OVCAR-4 ovarian): 96.2 µM | GI50 (K-562 leukemia): 7.4 µM | TGI (K-562 leukemia): 49 µM | GI50 (M14 melanoma): 28.8 µM | TGI (M14 melanoma): > 100 µM | GI50 (ACHN renal): 28 µM | TGI (ACHN renal): > 100 µM | GI50 (A498 renal): 12.3 µM | TGI (A498 renal): > 100 µM | GI50 (HL-60(TB) leukemia): 63.1 µM | TGI (HL-60(TB) leukemia): > 100 µM | GI50 (HOP-92 NSCLC): 14.6 µM | TGI (HOP-92 NSCLC): > 100 µM | GI50 (IGROV1 ovarian): 30.9 µM | TGI (IGROV1 ovarian): > 100 µM | GI50 (MALME-3M melanoma): 4.11 µM | TGI (MALME-3M melanoma): > 100 µM | GI50 (NCI-H522 lung): 16.2 µM | TGI (NCI-H522 lung): > 100 µM | GI50 (UACC-257 melanoma): 63.3 µM | TGI (UACC-257 melanoma): > 100 µM | GI50 (SF-295 CNS): 30.1 µM | TGI (SF-295 CNS): > 100 µM | GI50 (RXF 393 renal): 3.44 µM | TGI (RXF 393 renal): > 100 µM | GI50 (HS 578T breast): 7.78 µM | TGI (HS 578T breast): > 100 µM | GI50 (MDA-MB-231 breast): 18.1 µM | TGI (MDA-MB-231 breast): > 100 µM | GI50 (UO-31 renal): > 100 µM | TGI (UO-31 renal): > 100 µM | GI50 (SK-OV-3 ovarian): 65 µM | TGI (SK-OV-3 ovarian): > 100 µM | GI50 (OVCAR-3 ovarian): 48.4 µM | TGI (OVCAR-3 ovarian): > 100 µM | GI50 (SF-268 CNS): 94.1 µM | TGI (SF-268 CNS): > 100 µM | GI50 (SF-539 CNS): 82.1 µM | TGI (SF-539 CNS): > 100 µM | GI50 (UACC-62 melanoma): 97.9 µM | TGI (UACC-62 melanoma): > 100 µM
